The structures appear in SMILES notation. Numbered stars: 1 amine (or outer) side, 2 acyl side, 3 side chain; on linkers, the order of the positions; unused ones are H or OH. Bridge positions count the residues as written; N and C are the ends. Square brackets hold non-standard residues; d marks the D form. Peptide text beside a SMILES is read from it. * marks the point of attachment. Bip = N[C@@H](Cc1ccc(-c2ccccc2)cc1)C(=O)O; Phe(4-NH2) = Nc1ccc(C[C@H](N)C(=O)O)cc1; d(hPhe) = N[C@H](CCc1ccccc1)C(=O)O; Suc = O=C(CCC(=O)[*:2])[*:1]; NHCH2SO3H = O=S(=O)(O)CN*

The target in one assay is T1, TNFα / TNFα receptor (TNFα R1/Fc) (Homo sapiens, UniProt P01375).
T1 construct: purchased R&D Systems
T1 sequence (P01375 77-233 limits assumed, species assumed): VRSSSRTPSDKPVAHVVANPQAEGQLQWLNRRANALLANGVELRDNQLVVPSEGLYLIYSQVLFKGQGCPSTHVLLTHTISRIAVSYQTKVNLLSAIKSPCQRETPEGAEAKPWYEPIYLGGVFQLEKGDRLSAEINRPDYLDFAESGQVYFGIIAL
Nature of the assay: Inhibition of binding of TNFα to the TNFα receptor (plate ELISA competition). The conditions noted are these: Activity (IC50, inhibition of TNFα binding to TNFα R1/Fc), Table 2. The method, boiled down:
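Compound dilutions were preincubated 30 min at RT with 8.33 nM TNFα R1/Fc in PBST with 2% DMSO, then added to wells coated with 15 nM TNFα for 30 min. Bound receptor was detected with HRP anti-human Fc and TMB, read as A450.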
(An ELISA detects its analyte on a solid surface through an enzyme-linked reagent.)
With `O=C1COc2ccc(cc2)C[C@@H](C(=O)N[C@H](Cc2ccccc2)C(=O)O)NC(=O)[C@H](CCc2ccccc2)NC(=O)[C@@H](Cc2ccc(-c3ccccc3)cc2)NC(=O)[C@H](Cc2ccncc2)N1` [Compound 553], the IC50 was under 10 µM. `O=C1COc2ccc(cc2)C[C@@H](C(=O)N[C@@H](Cc2ccccc2)C(=O)O)NC(=O)[C@H](CCc2ccccc2)NC(=O)[C@@H](Cc2ccc(-c3ccccc3)cc2)NC(=O)[C@H](Cc2ccncc2)N1` [Compound 554] registered an IC50 of under 10 µM. For `O=C1COc2ccc(cc2)C[C@@H](C(=O)N[C@H](CO)C(=O)O)NC(=O)[C@H](CCc2ccccc2)NC(=O)[C@@H](Cc2ccc(-c3ccccc3)cc2)NC(=O)[C@H](Cc2ccncc2)N1` [Compound 555], the IC50 was under 10 µM.

The compound `O=C1COc2ccc(cc2)C[C@@H](C(=O)N[C@@H](CO)C(=O)O)NC(=O)[C@H](CCc2ccccc2)NC(=O)[C@@H](Cc2ccc(-c3ccccc3)cc2)NC(=O)[C@H](Cc2ccncc2)N1` [Compound 556] came in with an IC50 of under 10 µM. Turning to `O=C1COc2ccc(cc2)C[C@H](C(=O)N[C@@H](Cc2ccccc2)C(=O)O)NC(=O)[C@@H](CCc2ccccc2)NC(=O)[C@H](Cc2ccc(-c3ccccc3)cc2)NC(=O)[C@@H](Cc2cccs2)N1` [Compound 561], the IC50 was under 10 µM.

The compound `O=C1COc2ccc(cc2)C[C@H](C(=O)N[C@H](Cc2ccccc2)C(=O)O)NC(=O)[C@@H](CCc2ccccc2)NC(=O)[C@H](Cc2ccc(-c3ccccc3)cc2)NC(=O)[C@@H](Cc2cccs2)N1` [Compound 562] had an IC50 of under 10 µM.

`O=C1COc2ccc(cc2)C[C@@H](C(=O)NCS(=O)(=O)O)NC(=O)[C@H](Cc2ccc(O)cc2)NC(=O)[C@@H](Cc2ccc(-c3ccccc3)cc2)NC(=O)[C@H](Cc2cccs2)N1` [Compound 566]: the IC50 was 10 to 30 µM.

Staying with this assay, now noted: Table 2; read-out: Activity (IC50, inhibition of TNFα binding to TNFα R1/Fc).
Regarding `O=C1COc2ccc(cc2)C[C@@H](C(=O)O)NC(=O)[C@@H](Cc2ccncc2)NC(=O)[C@H](Cc2ccc(-c3ccccc3)cc2)NC(=O)[C@@H](Cc2cccs2)N1` [Compound 536], the IC50 is under 10 µM. Consider `O=C1COc2ccc(cc2)C[C@@H](C(=O)O)NC(=O)[C@@H](C/C=C/c2ccccc2)NC(=O)[C@H](Cc2ccc(-c3ccccc3)cc2)NC(=O)[C@@H](Cc2cccs2)N1` [Compound 537], for which the IC50 was over 100 µM.

For the compound `O=C1COc2ccc(cc2)C[C@@H](C(=O)O)NC(=O)[C@@H](Cc2cccs2)NC(=O)[C@H](Cc2ccc(-c3ccccc3)cc2)NC(=O)[C@@H](Cc2cccs2)N1` [Compound 538], the IC50 is over 100 µM. On the same count and under the same terms, the result for `O=C1COc2ccc(cc2)C[C@@H](C(=O)O)NC(=O)[C@@H](CCc2ccccc2)NC(=O)[C@H](Cc2ccc(Br)cc2)NC(=O)[C@@H](Cc2cccs2)N1` [Compound 539] reads over 100 µM. The same measure, in the same setting: under `COc1ccc(C[C@@H]2NC(=O)[C@@H](Cc3cccs3)NC(=O)COc3ccc(cc3)C[C@@H](C(=O)O)NC(=O)[C@@H](CCc3ccccc3)NC2=O)cc1OC` [Compound 540] stands over 100 µM. On the same count and under the same terms, under `O=C1COc2ccc(cc2)C[C@@H](C(=O)O)NC(=O)[C@@H](CCc2ccccc2)NC(=O)[C@H](Cc2ccc([N+](=O)[O-])cc2)NC(=O)[C@@H](Cc2cccs2)N1` [Compound 541] stands over 100 µM. Regarding `O=C1CCC(=O)N[C@H](CCc2ccccc2)C(=O)N[C@@H](Cc2ccc(-c3ccccc3)cc2)C(=O)N[C@H](Cc2ccccc2)C(=O)N[C@H](C(=O)N[C@@H](Cc2ccccc2)C(=O)NCS(=O)(=O)O)Cc2ccc(cc2)N1` [Compound 542] ([d(hPhe)][Bip][dF][Phe(4-NH2)]F-NHCH2SO3H; linker N-4 via Suc), the IC50 is under 10 µM. On the same count and under the same terms, the result for `O=C1CCCc2cn(nn2)C[C@@H](C(=O)O)NC(=O)[C@@H](Cc2ccccc2)NC(=O)[C@H](Cc2ccc(C(F)(F)F)cc2)NC(=O)[C@@H](CCc2ccccc2)N1` [Compound 543] reads over 100 µM; that for `O=C1CCCCc2cn(nn2)C[C@@H](C(=O)O)NC(=O)[C@@H](CCc2ccccc2)NC(=O)[C@H](Cc2ccc(-c3ccccc3)cc2)NC(=O)[C@@H](Cc2cccs2)N1` [Compound 544], under 10 µM.

For `O=C1CCC(=O)N[C@H](Cc2cccs2)C(=O)N[C@@H](Cc2ccc(-c3ccccc3)cc2)C(=O)N[C@H](Cc2ccccc2)C(=O)N[C@H](C(=O)O)Cc2ccc(cn2)N1` [Compound 545], the IC50 was in the range of 10 to 30 µM.

In the case of `O=C1CCC(=O)N[C@H](CCc2ccccc2)C(=O)N[C@@H](Cc2ccc(-c3ccccc3)cc2)C(=O)N[C@H](Cc2ccccc2)C(=O)N[C@H](C(=O)O)Cc2ccc(cn2)N1` [Compound 546], the IC50 was under 10 µM. Regarding `O=C1CCC(=O)N[C@H](Cc2cccs2)C(=O)N[C@@H](Cc2ccc(-c3ccccc3)cc2)C(=O)N[C@H](CCc2ccccc2)C(=O)N[C@H](C(=O)O)Cc2ccc(cn2)N1` [Compound 547], the IC50 is under 10 µM. `O=C1CCC(=O)N[C@H](CCc2ccccc2)C(=O)N[C@@H](Cc2ccc(C(F)(F)F)cc2)C(=O)N[C@H](Cc2ccccc2)C(=O)N[C@H](C(=O)O)Cc2ccc(cn2)N1` [Compound 548]: the IC50 lay within 30 to 100 µM. Still for that read-out and setting: under `O=C1CCC(=O)N[C@H](Cc2cccs2)C(=O)N[C@@H](Cc2ccc(-c3ccccc3)cc2)C(=O)N[C@H](Cc2ccccc2)C(=O)Nc2ccc(cc2)C[C@@H](C(=O)O)N1` [Compound 549] stands over 100 µM; under `O=C1CCC(=O)N[C@H](CCc2ccccc2)C(=O)N[C@@H](Cc2ccc(-c3ccccc3)cc2)C(=O)N[C@H](Cc2ccccc2)C(=O)Nc2ccc(cc2)C[C@@H](C(=O)O)N1` [Compound 550], 30 to 100 µM. Regarding `O=C1CCC(=O)N[C@H](Cc2cccs2)C(=O)N[C@@H](Cc2ccc(-c3ccccc3)cc2)C(=O)N[C@H](CCc2ccccc2)C(=O)Nc2ccc(cc2)C[C@@H](C(=O)O)N1` [Compound 551], the IC50 lay in the range of 30 to 100 µM.

As for `O=C1CCC(=O)N[C@H](CCc2ccccc2)C(=O)N[C@@H](Cc2ccc(C(F)(F)F)cc2)C(=O)N[C@H](Cc2ccccc2)C(=O)Nc2ccc(cc2)C[C@@H](C(=O)O)N1` [Compound 552], the IC50 was 10 to 30 µM. For the compound `C[C@@H](NC(=O)[C@@H]1Cc2ccc(cc2)OCC(=O)N[C@@H](Cc2ccncc2)C(=O)N[C@H](Cc2ccc(-c3ccccc3)cc2)C(=O)N[C@@H](CCc2ccccc2)C(=O)N1)C(=O)O` [Compound 557], the IC50 was under 10 µM. With `O=C(O)CNC(=O)[C@@H]1Cc2ccc(cc2)OCC(=O)N[C@@H](Cc2ccncc2)C(=O)N[C@H](Cc2ccc(-c3ccccc3)cc2)C(=O)N[C@@H](CCc2ccccc2)C(=O)N1` [Compound 558], the IC50 is under 10 µM. For the compound `O=C(O)CCNC(=O)[C@@H]1Cc2ccc(cc2)OCC(=O)N[C@@H](Cc2ccncc2)C(=O)N[C@H](Cc2ccc(-c3ccccc3)cc2)C(=O)N[C@@H](CCc2ccccc2)C(=O)N1` [Compound 559], the IC50 was under 10 µM.

Consider `O=C(O)CCCNC(=O)[C@@H]1Cc2ccc(cc2)OCC(=O)N[C@@H](Cc2ccncc2)C(=O)N[C@H](Cc2ccc(-c3ccccc3)cc2)C(=O)N[C@@H](CCc2ccccc2)C(=O)N1` [Compound 560], for which the IC50 was under 10 µM. On the same count and under the same terms, under `O=C1COc2ccc(cc2)C[C@@H](C(=O)N[C@@H](CO)C(=O)O)NC(=O)[C@H](Cc2ccc(O)cc2)NC(=O)[C@@H](Cc2ccc(-c3ccccc3)cc2)NC(=O)[C@H](Cc2cccs2)N1` [Compound 563] stands 30 to 100 µM. Still for that read-out and setting: the result for `O=C(O)CCNC(=O)[C@@H]1Cc2ccc(cc2)OCC(=O)N[C@@H](Cc2cccs2)C(=O)N[C@H](Cc2ccc(-c3ccccc3)cc2)C(=O)N[C@@H](Cc2ccc(O)cc2)C(=O)N1` [Compound 564] reads under 10 µM; that for `O=C1COc2ccc(cc2)C[C@@H](C(=O)N[C@H](Cc2ccccc2)C(=O)O)NC(=O)[C@H](Cc2ccc(O)cc2)NC(=O)[C@@H](Cc2ccc(-c3ccccc3)cc2)NC(=O)[C@H](Cc2cccs2)N1` [Compound 565], under 10 µM; that for `O=C1COc2ccc(cc2)C[C@@H](C(=O)N[C@@H](Cc2ccc(O)cc2)C(=O)O)NC(=O)[C@H](CCc2ccccc2)NC(=O)[C@@H](Cc2ccc(-c3ccccc3)cc2)NC(=O)[C@H](Cc2ccc(-c3ccccc3)cc2)N1` [Compound 567], under 10 µM. The same measure, in the same setting: under `O=C(O)CCCNC(=O)[C@@H]1Cc2ccc(cc2)OCC(=O)N[C@@H](Cc2ccc(-c3ccccc3)cc2)C(=O)N[C@H](Cc2ccc(-c3ccccc3)cc2)C(=O)N[C@@H](CCc2ccccc2)C(=O)N1` [Compound 568] stands 30 to 100 µM; under `O=C(O)CCNC(=O)[C@@H]1Cc2ccc(cc2)OCC(=O)N[C@@H](Cc2ccc(-c3ccccc3)cc2)C(=O)N[C@H](Cc2ccc(-c3ccccc3)cc2)C(=O)N[C@@H](CCc2ccccc2)C(=O)N1` [Compound 569], under 10 µM; under `O=C(O)CNC(=O)[C@@H]1Cc2ccc(cc2)OCC(=O)N[C@@H](Cc2ccc(-c3ccccc3)cc2)C(=O)N[C@H](Cc2ccc(-c3ccccc3)cc2)C(=O)N[C@@H](CCc2ccccc2)C(=O)N1` [Compound 570], 10 to 30 µM. Take `O=C1COc2ccc(cc2)C[C@@H](C(=O)N[C@H](CO)C(=O)O)NC(=O)[C@H](CCc2ccccc2)NC(=O)[C@@H](Cc2ccc(-c3ccccc3)cc2)NC(=O)[C@H](Cc2ccc(-c3ccccc3)cc2)N1` [Compound 571]: the IC50 was under 10 µM. Take `C[C@H](NC(=O)[C@@H]1Cc2ccc(cc2)OCC(=O)N[C@@H](Cc2ccc(-c3ccccc3)cc2)C(=O)N[C@H](Cc2ccc(-c3ccccc3)cc2)C(=O)N[C@@H](CCc2ccccc2)C(=O)N1)C(=O)O` [Compound 572]: the IC50 is under 10 µM. Same read-out and setting: under `O=C1COc2ccc(cc2)C[C@@H](C(=O)N[C@H](Cc2ccccc2)C(=O)O)NC(=O)[C@H](CCc2ccccc2)NC(=O)[C@@H](Cc2ccc(-c3ccccc3)cc2)NC(=O)[C@H](Cc2ccc(-c3ccccc3)cc2)N1` [Compound 573] stands under 10 µM; under `O=C1COc2ccc(cc2)C[C@@H](C(=O)N[C@@H](Cc2ccccc2)C(=O)O)NC(=O)[C@H](CCc2ccccc2)NC(=O)[C@@H](Cc2ccc(-c3ccccc3)cc2)NC(=O)[C@H](Cc2ccc(-c3ccccc3)cc2)N1` [Compound 574], over 100 µM.

Values taken from patent US8338565B2, “Macrocyclic compounds for inhibition of tumor necrosis factor alpha” (Ensemble Therapeutics Corporation, priority 2008, dated 2012).
